This note sets out measurements from patent publication US20090158447A1, “TLR ligand and IL-1 Response-Injured Animal Model” (priority 2004, published 2009).

What all share (assay type): cell-based, mouse
Assay [1] relates to peritoneal macrophages or lung-derived normal cells. The assay can be described thus: Northern blot analysis of IκB-ζ, Bcl-3 and IκB-α expression on TLR/IL-1R stimulation. Conditions: stimulation for 2 hours, FIG. 1a. On the procedure:
Peritoneal macrophages and lung primary cells were stimulated with 100 ng ml^−1 BLP, 10 μg ml^−1 PGN, 30 ng ml^−1 MALP-2, 100 nM R-848, 3 μM CpG DNA, 10 ng ml^−1 IL-1β, 10 μg ml^−1 LPS, 100 ng ml^−1 flagellin, and 10 ng ml^−1 TNF-α for 2 hours. Total RNA (10 μg) was extracted and subjected to Northern blot analysis for investigating the expression of IκB-ζ, Bcl-3, IκB-α, and β-actin. b. MEFs from wild-type and MyD88-deficient mice were stimulated with 10 ng ml^−1 IL-1β and 10 μg ml^−1 LPS for the indicated periods. Total RNA (10 μg) was extracted and subjected to Northern blot analysis for investigating the expression of IκB-ζ, Cox-2, IP-10, and β-actin.
Whether IκB-ζ would be induced in response to other TLR ligands was examined based on the fact that stimulation with IL-1 or LPS induces IκB-ζ in macrophage cell lines and fibroblasts, and that IL-1R and the receptor for LPS, TLR4, share the intracellular signaling pathways. […] On the other hand, other IκB family members, IκB-α and Bcl-3, were induced in response to TNF-αas well as a TLR ligand and IL-1. Taken together, unlike IκB-α and Bcl-3, the IκB-ζ induction is specifically detected on the TLR/IL-1R stimulation.

Assay [2] deals with peritoneal macrophages. The assay can be described thus: Time-course Northern blot analysis of IκB-ζ induction following LPS stimulation. The following applies: wild-type peritoneal macrophages, 10 ng ml^−1 LPS, FIG. 3h. On the procedure:
It is a figure showing immune responses in IκB-ζ-deficient cells, and kinetics of IκB-ζ induction. a, b, c, d. Peritoneal macrophages from wild-type and IκB-ζ-deficient mice were cultured with the indicated concentrations of PGN, R-848, CpG DNA in the coexistence of 10 ng ml^−1 LPS, 100 ng ml^−1 BLP, and 30 ng ml^−1 MALP-2, and in the presence of 30 ng ml^−1 IFN-γ for 24 h. Concentrations of IL-6, TNF-α, and NO in the culture supernatants were measured. The indicated values are means±SD of triplicates. “N.D.” means not detected. e. MEFs from wild-type and IκB-ζ-deficient mice were stimulated with 10 ng ml^−1 IL-1 and 10 ng ml^−1 TNF-α. Supernatents were collected for IL-6 analysis by ELISA 24 h later. Indicated values are means±SD of triplicates. “N.D.” means not detected. f. Peritoneal macrophages were stimulated with 10 ng ml^−1 LPS for the indicated periods. Total RNA (5 μg) was extracted and subjected to Northern blot analysis for investigating the expression of IL-6, TNF-α, and β-actin. g. […] Concentrations of IL-6 in the culture supernatants, with or without 10 ng ml^−1 IL-β, were measured by ELISA. […] Two-independent experiments with independently derived wild-type cells were quantitated by Phospholmager and mRNA amount was graphed for the indicated genes in arbitrary units (left for IκB-ζ and IL-6, right for TNF-α) relative to β-actin. […]

Assay [3] deals with RAW 264.7 cells. The assay is described as follows: Luciferase reporter assay of IL-6 and ELAM1 promoters. The following applies: RAW 264.7 cells transfected with luciferase reporter plasmids, FIG. 4a. The source says:
It is a figure showing the result of an in vitro analysis of IκB-ζ on the IL-6 promoter. a. RAW 264.7 cells were transiently transfected with luciferase reporter constructs of either mouse IL-6 promoter or ELAM1 promoter together with either a control or the IκB-ζ expression plasmid. Luciferase activities were expressed as fold-increase over the background shown by lysates prepared from untransfected cells. Data are representative of three separate experiments. In all three experiments, cells were stimulated with the indicated concentrations of LPS. b. A certain amount of IκB-ζ expression vector was transiently introduced into untreated RAW 264.7 cells with the indicated amount of IL-6 reporter plasmid. Data are representative of three independent experiments. c. […] Precipitated DNA for the IL-6 κB site (left), 3′ region of IL-6 gene (center), or ELAM1 promoter (right) was measured by PCR (ChIP). […]
Reporter plasmids were transiently co-transfected into RAW 264.7 and P19 cells with either control or the IκB-ζ expression vectors by using SUPERFECT transfection reagent (QIAGEN). Luciferase activities of total cell lysates were measured using dual-luciferase reporter assay system (Promega, Maiden, Wis.) according to the method described previously (28, 29) (Nat Immunol. 3, 392-398 (2002); Nat Immunol. 2, 835-841 (2001)).
(In general: A reporter such as luciferase makes a cellular process visible.)

With lipopolysaccharide [LPS], in assay [1], the “IκB-ζ mRNA induction” value is “strongly induced”. In addition, in assay [2], the “time after stimulation at which IκB-ζ induction reached its maximum level” value amounted to 120 min and the “time after stimulation at which IκB-ζ induction was observed” value is reported as 30 min. The “activation of both IL-6 and ELAM1 promoters” value in assay [3] was “dose-dependent manner”.
